Read-outs that look alike come from different tables or passages of the source. Square brackets hold non-standard residues; d marks the D form. Peptide text beside a SMILES is read from it.
Columns and labels:
SRIF receptors = molecular target: T1, SRIF receptors (Rattus norvegicus, UniProt P30680); experiment: Yeast bioassay for SRIF antagonist activity (zone of growth inhibition of LY364 cells growing in response to SRIF); assay type: cell-based; details: 10 µL of 5 mg/mL on filter disk, S-14 10 nM; for Yeast Assay (mm): Table III, diameter of zone of growth inhibition; for Inhibition Zone (mm): sample type 4th iteration, read after 3 days, compare only within same experiment
T1 construct: expressed in transfected cells; host or cells: Saccharomyces cerevisiae strain LY364
T1 sequence (P30680 whole entry): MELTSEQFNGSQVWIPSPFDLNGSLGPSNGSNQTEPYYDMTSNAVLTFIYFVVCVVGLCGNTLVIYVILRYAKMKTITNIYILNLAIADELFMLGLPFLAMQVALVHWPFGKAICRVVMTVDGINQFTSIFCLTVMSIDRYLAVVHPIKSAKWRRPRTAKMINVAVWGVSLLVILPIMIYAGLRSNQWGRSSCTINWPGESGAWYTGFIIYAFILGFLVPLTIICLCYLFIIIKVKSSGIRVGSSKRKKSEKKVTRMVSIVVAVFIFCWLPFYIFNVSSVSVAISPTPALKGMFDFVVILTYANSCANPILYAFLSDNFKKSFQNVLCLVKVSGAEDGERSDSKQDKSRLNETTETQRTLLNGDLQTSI
Protocol: Agar plates containing LY364 cells that are growing in the presence of added SRIF are the basis for a sensitive SRIF antagonist assay, whereby zones of growth inhibition result from the addition of SRIF antagonists to the surface of the agar plate (see L.A. Price, et al., Molecular and Cellular Biology, 15, 6188-6195, 1995, incorporated herein by reference).
In this assay, LY364 cells are grown overnight in 2 mL of synthetic complete(SC) medium (3.4 g/L YNB without amino acids and ammonium sulfate, 10 g/L ammonium sulfate and 1.4 g/L CSM-ura-trp) with glucose (2%) and without uracil and tryptophan. These cells are washed and cultured for 4 to 8 hours in 5 mL of SC medium with lactate (3%) and without uracil and tryptophan, and finally grown overnight in 5 mL of SC medium with galactose (2%) and without uracil and tryptophan. Molten (50° C) SC agar medium with galactose (2%) and without uracil, tryptophan and histidine is adjusted to pH 6.8 with KOH, mixed with 2 x 10^4 cells/mL and SRIF (S-14, 10 nM) and poured into square (20 x 20 cm) petri dishes. Sterile filter disks are placed on the surface of the agar, and saturated with 10 µL of water or DMSO containing 5 mg/mL test peptides. After three days, the plates display a uniform cloudy background of […] cells growing in response to the added SRIF. […] This zone is quantified by measuring its diameter (mm), which varies according to the potency of the SRIF antagonist. Those peptides or mixtures of peptides displaying the largest zones of inhibition are further characterized.
Values are compared among samples in the same experiment, as the degree of yeast growth varies somewhat from assay to assay. For the first five sample types, in which progressively less complex mixtures of peptides are found, this assay is the primary determining factor in choosing which samples form the basis of subsequent syntheses.
Plates are read after 3 days. Samples shown in Table I in bold type are chosen for further synthesis. In Table I, all amino acids are D-amino acids and dashes represent undefined amino acid residues.

SSTR2 = SSTR2 (Rattus norvegicus, UniProt P30680); experiment: cAMP accumulation in forskolin-stimulated GH4C1/SSTR2 cells (SPA radioimmunoassay); assay type: cell-based; set-up: expressed in transfected cells; host or cells: GH4C1 rat pituitary tumor cells; details: for cAMP Assay Intrinsic activity / Emax: percent reversal of SSTR2 activation by SRIF or MK678, 0% = forskolin plus agonist, 100% = forskolin alone; for Emax: GH4-C1, read-out: cAMP Assay Intrinsic activity
SSTR2, sequence (P30680 whole entry): as above
Protocol: This is the basis of a common assay for SRIF agonists and antagonists, whereby SRIF agonists reduce artificially stimulated cAMP levels, and SRIF antagonists reverse the effect of SRIF. […] This increases the response to SRIF and provides a greater dynamic range for the measurement of SRIF antagonist activity.
Stimulation of cells. GH4C1/SSTR2 cells, grown in DMEM with 10% bovine serum, are released from a tissue culture dish by incubation for several minutes at 37° C with PBS containing 0.5 mM EDTA. Cells are washed in induction buffer (PBS containing 100 µM IBMX (an inhibitor of cAMP breakdown) and 2 mM CaCl2) at room temperature, and resuspended at 2 x 10^6/mL in induction buffer. Into each well of a 96-well tray are added 50 µL of a 2 X concentration of stimulants in induction buffer. […] To initiate stimulation of the cells, 50 µL (100,000) cells are added to each well, mixed by shaking 10 seconds on a plate shaker and placed at 37° C for 15 minutes. Stimulation is arrested and cells are lysed by adding 15 µL 0.33 N HCI to each well and incubating the plate for 30 minutes at 37° C. Samples are neutralized by addition of 15 µL 0.25 N NaOH/50 mM Hepes pH 7.4. Baseline cAMP levels are determined in samples with no added forskolin or SRIF, and each treatment is performed in triplicate.
cAMP assay. To measure accumulated cAMP in the samples, a radioimmunoassay is employed. The scintillation proximity assay (SPA, Amersham, Arlington Heights, IL) allows the rapid measurement of ^125I cAMP bound to a specific antibody without separating bound radioligand from free radioligand. Each of the following reagents (15 µL) are added per well in a 96-well tray: supernatants from the cell stimulation; ^125I cAMP; SPA beads conjugated to monkey anti-rabbit IgG antibodies; and rabbit anti-cAMP antibodies. For the standard curve, known amounts of cAMP (0.2 - 12.8 pmol) are added in place of cell supernatants. The 96-well tray is sealed, shaken at room temperature overnight and measured for bound radioligand in a MicroBeta liquid scintillation counter (Wallac, Gaithersburg. MD).
The intrinsic activity of an SRIF antagonist is the percent reversal of the SSTR2 activation by SRIF or MK678, wherein 0% is defined by cAMP levels in samples treated with forskolin plus SRIF or MK678 and 100% is the cAMP level measured after treatment with forskolin alone. Therefore, increased intrinsic activity of a test compound indicates increased antagonist activity of said test compound.
An inverse agonist is a compound that is not only a pure antagonist (i.e. lacking agonist activity), but also blocks the constitutive activity of an unoccupied receptor. One indication of inverse agonist activity is the ability of a SRIF antagonist to increase cAMP levels in the absence of added SRIF.

[1] = test system: serum growth hormone (GH) levels; experiment: In vivo serum growth hormone levels in anaesthetized rats (radioimmunoassay); set-up: species or system Male Sprague-Dawley rats; details: GRF 1 µg alone at 30 min
Protocol: Evaluation in anaesthetized rats. Male Sprague-Dawley rats are anaesthetized with Sagatal and fitted so as to allow efficient intravenous treatment with control and test compounds as well as frequent blood sampling. Blood samples are tested for growth hormone (GH) levels by radioimmunoassay. Thirty minutes after the initiation of blood sampling, rats are given 5 µg, 25 µg or 50 µg of peptide 1.
Peptide 1 is tested in combination with growth hormone releasing factor (GRF), to investigate whether said peptide may be mimicking the action of GRF. Anaesthetized rats are given GRF (1 µg) alone and in combination with peptide 1 (50 µg). […]

[2] = dose response of SRIF agonist upon cAMP levels in forskolin stimulated GH4C1/SSTR2 cells, agonist alone

| Molecule | Yeast Assay (mm) (SRIF receptors) | cAMP Assay Intrinsic activity (SSTR2; test peptide 2 µM) [%] | Inhibition Zone (mm) (SRIF receptors) | other results |
| --- | --- | --- | --- | --- |
| h-i-r-w-f [Peptide 8] | none | 2.76 | – | – |
| k-y-i-r-w-f [Peptide 19] | 9 mm | 33.3 | – | – |
| h-f-i-r-w-F [Peptide 18] | 19 mm | 46.7 | – | – |
| h-f-i-k-w-f [Peptide 27] | 20.5 mm | 71.2 | – | – |
| CC[C@@H](C)[C@@H](NC(=O)[C@@H](Cc1ccccc1)NC(=O)[C@@H](Cc1c[nH]cn1)NC(C)=O)C(=O)N[C@H](CCCNC(=N)N)C(=O)NCC(=O)N[C@H](Cc1ccccc1)C(N)=O [Peptide 26, h-f-i-r-g-f] (Ac-[dH][dF][dI][dR]G[dF]-NH2) | – | – | – | Emax (SSTR2; test peptide 2 µM): 4.51% |
| CC(C)[C@@H]1NC(=O)[C@H](CCCCN)NC(=O)[C@@H](Cc2c[nH]c3ccccc23)NC(=O)[C@H](Cc2ccc(O)cc2)NC(=O)[C@H](C)N(C)C(=O)[C@H](Cc2ccccc2)NC1=O [MK678, reference compound] | – | – | – | cAMP (SSTR2; Forskolin 1.25 µM + MK 678 10 nM, no Peptide 1 (forskolin alone 3.04; baseline 0.36)): 0.91 pM per 4 x 10^4 cells; EC50 (SSTR2; [2]): 0.143 nM; Maximum (SSTR2; [2]): 6.431; Minimum (SSTR2; [2]): 2.673 |
| h-f-i-R-w-f [Peptide 16] | 17 mm | 43.6 | – | – |
| f-r-i-r-w-f [Peptide 25] | none | 10.8 | – | – |
| h-f-a-r-w-f [Peptide 4] | 16 mm | 41.8 | – | – |
| h-w-i-r-w-f [Peptide 21] | 18 mm | 54.7 | – | – |
| h-f-i-w-f [Peptide 10] | 14 mm | 25.3 | – | – |
| CC[C@@H](C)[C@H]1NC(=O)[C@@H](Cc2ccccc2)NC(=O)[C@@H](Cc2c[nH]cn2)NC(=O)[C@@H](Cc2ccccc2)NC(=O)[C@@H](Cc2c[nH]c3ccccc23)NC(=O)[C@@H](CCCNC(=N)N)NC1=O [Peptide 35, h-f-i-r-w-f] (cyclo([dH][dF][dI][dR][dW][dF])) | – | – | – | Emax (SSTR2; test peptide 100 µM): 122% |
| CC[C@@H](C)[C@@H](NC(=O)[C@@H](Cc1c[nH]c2ccccc12)NC(=O)[C@@H](Cc1c[nH]cn1)NC(C)=O)C(=O)N[C@H](CCCNC(=N)N)C(=O)N[C@H](Cc1ccccc1)C(=O)N[C@H](Cc1ccccc1)C(N)=O [Peptide 29, h-w-i-r-f-f] (Ac-[dH][dW][dI][dR][dF][dF]-NH2; N-terminus and C-terminus assumed) | – | – | – | Emax (SSTR2; test peptide 100 µM): 21.3% |
| CC[C@@H](C)[C@@H](NC(=O)[C@@H](Cc1ccccc1)NC(=O)[C@@H](Cc1c[nH]cn1)NC(C)=O)C(=O)N[C@H](CCCNC(=N)N)C(=O)N[C@H](Cc1c[nH]c2ccccc12)C(=O)N[C@H](CCC(N)=O)C(N)=O [Seq Id No. 26] (Ac-[dH][dF][dI][dR][dW][dQ]-NH2) | – | – | 16 | – |
| CC[C@@H](C)[C@@H](NC(=O)[C@@H](CCCNC(=N)N)NC(=O)[C@@H](Cc1c[nH]c2ccccc12)NC(=O)[C@@H](Cc1ccccc1)NC(=O)[C@@H](Cc1c[nH]cn1)NC(C)=O)C(=O)N[C@H](Cc1ccccc1)C(N)=O [Peptide 30, h-f-w-r-i-f] (Ac-[dH][dF][dW][dR][dI][dF]-NH2; N-terminus and C-terminus assumed) | – | – | – | Emax (SSTR2; test peptide 100 µM): 12.9% |
| CC[C@@H](C)[C@@H](NC(=O)[C@@H](Cc1ccccc1)NC(=O)[C@@H](Cc1c[nH]cn1)NC(C)=O)C(=O)N[C@H](CCCNC(=N)N)C(=O)N[C@H](Cc1c[nH]c2ccccc12)C(=O)N[C@@H](C(N)=O)[C@H](C)O [Seq Id No. 19] (Ac-[dH][dF][dI][dR][dW][dT]-NH2) | – | – | 14 | – |
| CC[C@@H](C)[C@@H](NC(=O)[C@@H](Cc1ccccc1)NC(=O)[C@@H](Cc1c[nH]cn1)NC(C)=O)C(=O)N[C@H](CCCNC(=N)N)C(=O)N[C@H](Cc1c[nH]c2ccccc12)C(=O)N[C@H](Cc1c[nH]c2ccccc12)C(N)=O [Seq Id No. 25] (Ac-[dH][dF][dI][dR][dW][dW]-NH2) | – | – | 16 | – |
| CC[C@@H](C)[C@@H](NC(=O)[C@@H](Cc1ccccc1)NC(=O)[C@@H](Cc1c[nH]cn1)NC(C)=O)C(=O)N[C@H](CCCNC(=N)N)C(=O)N[C@H](Cc1c[nH]c2ccccc12)C(=O)NCC(N)=O [His Phe Ile Arg Trp Gly] (Ac-[dH][dF][dI][dR][dW]G-NH2) | – | – | 13 | – |
| CC[C@@H](C)[C@@H](NC(=O)[C@@H](Cc1ccccc1)NC(=O)[C@@H](Cc1c[nH]cn1)NC(C)=O)C(=O)N[C@H](CCCNC(=N)N)C(=O)N[C@H](Cc1c[nH]c2ccccc12)C(=O)N[C@H](C)C(N)=O [Seq Id No. 22] (Ac-[dH][dF][dI][dR][dW][dA]-NH2) | – | – | 15 | – |
| CC[C@@H](C)[C@@H](NC(=O)[C@@H](Cc1ccccc1)NC(=O)[C@@H](Cc1c[nH]cn1)NC(C)=O)C(=O)N[C@H](CCCNC(=N)N)C(=O)N[C@H](Cc1c[nH]c2ccccc12)C(=O)N[C@H](CC(N)=O)C(N)=O [Seq Id No. 23] (Ac-[dH][dF][dI][dR][dW][dN]-NH2) | – | – | 15 | – |
| CC[C@@H](C)[C@@H](NC(=O)[C@@H](CCCNC(=N)N)NC(=O)[C@@H](Cc1ccccc1)NC(=O)[C@@H](Cc1c[nH]cn1)NC(C)=O)C(=O)N[C@H](Cc1c[nH]c2ccccc12)C(=O)N[C@H](Cc1ccccc1)C(N)=O [Peptide 31, h-f-r-i-w-f] (Ac-[dH][dF][dR][dI][dW][dF]-NH2; N-terminus and C-terminus assumed) | – | – | – | Emax (SSTR2; test peptide 100 µM): 13% |
| CC[C@@H](C)[C@@H](NC(=O)[C@@H](Cc1c[nH]c2ccccc12)NC(=O)[C@@H](CCCNC(=N)N)NC(=O)[C@H](NC(=O)[C@@H](Cc1ccccc1)NC(=O)[C@@H](Cc1c[nH]cn1)NC(C)=O)[C@H](C)CC)C(N)=O [Seq Id No. 21] (Ac-[dH][dF][dI][dR][dW][dI]-NH2) | – | – | 16 | – |
| GRF: growth hormone releasing factor (GRF) [reference compound] | – | – | – | SGH ([1]; time 0 min (before dosing)): 11.2 ng/mL; SGH ([1]; time 15 min (before dosing)): 11.3 ng/mL; SGH ([1]; time 30 min (time of dose)): 8.4 ng/mL; SGH ([1]; time 35 min): 67.1 ng/mL; SGH ([1]; time 40 min): 103.5 ng/mL; SGH ([1]; time 45 min): 53.1 ng/mL |
| CC[C@@H](C)[C@@H](NC(=O)[C@@H](Cc1ccccc1)NC(=O)[C@@H](Cc1c[nH]cn1)NC(C)=O)C(=O)N[C@H](CCCNC(=N)N)C(=O)N[C@H](Cc1c[nH]c2ccccc12)C(=O)N[C@H](CC(C)C)C(N)=O [Seq Id No. 18] (Ac-[dH][dF][dI][dR][dW][dL]-NH2) | – | – | 15 | – |
| CC[C@@H](C)[C@@H](NC(=O)[C@@H](Cc1ccccc1)NC(=O)[C@@H](Cc1c[nH]cn1)NC(C)=O)C(=O)N[C@H](CCCNC(=N)N)C(=O)N[C@H](Cc1c[nH]c2ccccc12)C(=O)N[C@H](Cc1ccc(O)cc1)C(N)=O [Seq Id No. 20] (Ac-[dH][dF][dI][dR][dW][dY]-NH2) | – | – | 16 | – |
| CC[C@@H](C)[C@@H](NC(=O)[C@@H](Cc1ccccc1)NC(=O)[C@@H](Cc1c[nH]cn1)NC(C)=O)C(=O)N[C@H](CCCNC(=N)N)C(=O)N[C@H](Cc1c[nH]c2ccccc12)C(=O)N[C@H](CCSC)C(N)=O [Seq Id No. 24] (Ac-[dH][dF][dI][dR][dW][dM]-NH2) | – | – | 18 | – |
| CC[C@@H](C)[C@@H](NC(C)=O)C(=O)N[C@H](CCCNC(=N)N)C(=O)N[C@H](Cc1c[nH]c2ccccc12)C(=O)N[C@H](Cc1ccccc1)C(=O)N[C@H](Cc1c[nH]cn1)C(=O)N[C@H](Cc1ccccc1)C(N)=O [Peptide 33, i-r-w-f-h-f] (Ac-[dI][dR][dW][dF][dH][dF]-NH2; N-terminus and C-terminus assumed) | – | – | – | Emax (SSTR2; test peptide 100 µM): 11.5% |

Reference: EP0863156A1, “Peptides useful as somatostatin antagonists” (American Cyanamid Company, priority 1997, dated 1998)
